From patent US8507472B2 (priority 2010, dated 2013)
Several values for one entry are separate records, joined by “and”; a condition that tells them apart may be missing. Equal values may be shown once.

Legend:
Botrytis cinerea = assay: Botrytis test (bean)/protective; format: in vivo; conditions: 100 ppm active compound, protective, evaluation 2 days after inoculation
In short: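 Young bean plants sprayed at the stated rate with compound in acetone/dimethylacetamide plus alkylaryl polyglycol ether emulsifier, diluted in water. Once dry, each leaf got 2 agar pieces colonized by Botrytis cinerea; kept dark at about 20° C., 100% humidity. Infected area scored after 2 days; 0% = control, 100% = no infection.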

Pyricularia oryzae = conditions: in vivo
Cochliobolus miyabeanus = assay: Cochliobolus test (rice)/protective; format: in vivo; conditions: 250 ppm active compound, protective, evaluation 4 days after inoculation
Rhizoctonia solani = assay: Rhizoctonia test (rice)/protective; format: in vivo; conditions: 250 ppm active compound, protective, evaluation 4 days after inoculation
Method: Solvent: 28.5 parts by weight of acetone
Emulsifier: 1.5 parts by weight of alkylaryl polyglycol ether
To produce a suitable preparation of active compound, 1 part by weight of active compound is mixed with the stated amount of solvent, and the concentrate is diluted with water and the stated amount of emulsifier to the desired concentration.
To test for protective activity, young rice plants are sprayed with the active compound preparation at the stated application rate. 1 day after the treatment, the plants are inoculated with hyphae of Rhizoctonia solani. The plants are then placed in a greenhouse at 100% relative atmospheric humidity and 25° C.
Evaluation is carried out 4 days after the inoculation. 0% means an efficacy which corresponds to that of the control, whereas an efficacy of 100% means that no infection is observed.

Pyrenophora teres = Pyrenophora teres test (barley)/protective; format: in vivo; conditions: in vivo
In short: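 Protective test: young barley plants sprayed at the stated rate with compound in DMF/alkylaryl polyglycol ether diluted with water, inoculated with P. teres spores 1 day later, kept 48 h at 100% rel. humidity and 22° C., then greenhouse at 80% and 20° C. Efficacy scored 7-9 days post-inoculation (0% = control, 100% = no infection).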

[1] = system: Fusarium nivale (var. majus); assay: Fusarium nivale (var. majus) test (wheat)/protective; format: in vivo; conditions: 1000 ppm active compound, protective, evaluation 5 days after inoculation
Method: (§1) Solvent: 49 parts by weight of N,N-dimethylacetamide
(§2) Emulsifier: 1 part by weight of alkylaryl polyglycol ether
(§3) To produce a suitable preparation of active compound, 1 part by weight of active compound is mixed with the stated amounts of solvent and emulsifier, and the concentrate is diluted with water to the desired concentration.
(§4) To test for protective activity, young plants are sprayed with the active compound preparation at the stated application rate.
After the spray coating has dried on, the plants are sprayed with spores of a spore suspension of Fusarium nivale (var. majus).
The plants are placed in a greenhouse chamber under a translucent incubation hood at 10° C. and 100% relative atmospheric humidity.
Evaluation is carried out 5 days after the inoculation. 0% means an efficacy which corresponds to that of the control, whereas an efficacy of 100% means that no infection is observed.

DON/AcDON production = assay: microbe, parasite or virus in culture; format: cell-based, Fusarium graminearum; conditions: 7 days at 28° C.
Septoria tritici = Septoria tritici test (wheat)/protective; format: in vivo; conditions: in vivo
Method: as §1, §2
To produce a suitable preparation of active compound, 1 part by weight of active compound is mixed with the stated amount of solvent and emulsifier, and the concentrate is diluted with water to the desired concentration.
To test for protective activity, young plants are sprayed with the active compound preparation at the stated application rate. After the spray coating has dried on, the plants are sprayed with a spore suspension of Septoria tritici. The plants remain in an incubation cabin at 20° C. and 100% relative atmospheric humidity for 48 hours. The plants are then placed under a translucent hood at 15° C. and 100% relative atmospheric humidity for a further 60 hours.
The plants are placed in a greenhouse at a temperature of about 15° C. and a relative atmospheric humidity of 80%.
Evaluation is carried out 21 days after the inoculation. 0% means an efficacy which corresponds to that of the control, whereas an efficacy of 100% means that no infection is observed.

Phytophthora infestans = format: in vivo; conditions: in vivo
Puccinia triticina = Puccinia triticina test (wheat)/protective; format: in vivo; conditions: in vivo
Method: Solvent: 49 parts by weight of […]
as §2, §3, §4
After the spray coating has dried on, the plants are sprayed with spores of a spore suspension of Puccinia triticina. The plants remain in an incubation cabin at 20° C. and 100% relative atmospheric humidity for 48 hours.
The plants are placed in greenhouse at a temperature of about 20° C. and a relative atmospheric humidity of about 80%.
Evaluation is carried out 8 days after the inoculation. 0% means an efficacy which corresponds to that of the control, whereas an efficacy of 100% means that no infection is observed.

Fusarium graminearum [2] = format: in vivo; conditions: in vivo
Uromyces appendiculatus = assay: Uromyces test (bean)/protective; format: in vivo; conditions: in vivo
In short: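 Young bean plants sprayed with compound formulated in acetone/dimethylacetamide with emulsifier, inoculated with Uromyces appendiculatus spores after drying, held 1 day at ~20 °C and 100% humidity, then greenhouse ~21 °C, ~90% humidity. Efficacy scored 10 days post-inoculation, 0% = untreated control, 100% = no infection.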

Alternaria solani = assay: Alternaria test (tomato)/protective; format: in vivo; conditions: in vivo
In short: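 Young tomato plants were sprayed with compound (DMF/emulsifier formulation diluted in water) and inoculated with A. solani spores 1 day later. Plants were kept 24 h at 100% RH and 22 °C, then at 96% RH and 20 °C. Efficacy was scored 7 days post-inoculation, where 0% equals untreated control and 100% means no infection.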

Fusarium graminearum [3] = assay: microbe, parasite or virus in culture; format: cell-based; conditions: 50 μM
Sphaerotheca fuliginea = assay: Sphaerotheca test (cucumber)/protective; format: in vivo; conditions: in vivo
In short: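 Protective test: young cucumber plants sprayed with compound (DMF/alkylaryl polyglycol ether concentrate diluted in water) at the stated rate, inoculated with S. fuliginea spores 1 day later, then kept in greenhouse at 23 °C, 70% RH. Efficacy scored 7 days post-inoculation; 0% equals untreated control, 100% means no infection.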

Leptosphaeria nodorum = Leptosphaeria nodorum test (wheat)/protective; format: in vivo; conditions: in vivo
In short: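 Young wheat plants were sprayed protectively, then inoculated 1 day later with L. nodorum spores and held 48 h at 100% humidity and 22° C. They were then kept in a greenhouse at 90% humidity and 22° C. Efficacy was scored 7-9 days post-inoculation, where 0% equals control and 100% means no infection.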

Venturia inaequalis = assay: Venturia test (apple)/protective; format: in vivo; conditions: 100 ppm active compound, protective, evaluation 10 days after inoculation
In short: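 Young apple plants sprayed protectively with compound (in acetone/dimethylacetamide with alkylaryl polyglycol ether, diluted in water) at the stated rate, then inoculated with V. inaequalis conidia once dry. Held 1 day at ~20° C, 100% humidity, then greenhouse ~21° C, ~90% humidity; efficacy scored 10 days post-inoculation (0% = control, 100% = no infection).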

Compound	efficacy in % (Botrytis cinerea)	efficacy in % (Pyricularia oryzae)	efficacy in % (Cochliobolus miyabeanus)	efficacy in % (Rhizoctonia solani)	efficacy in % (Pyrenophora teres)	efficacy in % [1]	% inhibition of DON/AcDON at 50 μM (DON/AcDON production)	efficacy in % (Septoria tritici)	efficacy in % (Phytophthora infestans)	efficacy in % (Puccinia triticina)	efficacy in % (Fusarium graminearum [2])	efficacy in % (Uromyces appendiculatus)	efficacy in % (Alternaria solani)	% inhibition of the fungal growth of Fusarium graminearum at 50 μM (Fusarium graminearum [3])	efficacy in % (Sphaerotheca fuliginea)	efficacy in % (Leptosphaeria nodorum)	efficacy in % (Venturia inaequalis)
CC(=O)Nc1cc(-c2c(-c3ccccc3)nn3c2CCCC3)ccn1 [Example 19]	99%	92%	96%	100%	100%	100%	100%	100%	100%	100% and 95%	100%	94%	100%	100%	98%	95%	93%
O=C(Nc1cc(-c2c(-c3ccc(F)cc3)nn3c2CCCC3)ccn1)C1CC1 [Example 20]	98%	92%	96%	100%	100%	100%	100%		100%	100%	94%	94%	100%	95%	100%	95%	99%
O=C(Nc1cc(-c2c(-c3ccccc3)nn3c2CCCC3)ccn1)C1CC1 [Example 21]	98%	98%	96%	100%	100%	100%	100%	100%	90%	95%	100%	94%	100%	97%	100%	95%	99%
